Measured values from patent US8426592B2, “Histone deacetylases, and uses related thereto” (President and Fellows of Harvard College, priority 1996, dated 2013).
Like-named read-outs stand apart in the source and are kept apart here. Non-standard residues stand in square brackets, D forms with d. Residues, ends and D or L forms follow the SMILES beside them. Aoe = N[C@@H](CCCCCC(=O)[C@@H]1CO1)C(=O)O

Legend:
bovine p46-p50 = assay: Binding of bovine thymus nuclear proteins to K-trap affinity matrix in presence of inhibitors, silver stained gel; settings: incubation in presence of inhibitor
Protocol: Nuclear proteins from human Jurkat T cells were prepared identically to those from bovine thymus (FIG. 1B). Molecular size standards (in kilodaltons) are indicated to the right.
K-trap was deprotected with Pd(Ph3P)4 and coupled to an activated agarose matrix (FIG. 2A). […] Bound polypeptides were eluted by boiling the matrix in 1% SDS buffer and separated b polyacrylamide gel electrophoresis.

histone deacetylase [1] = settings: cited from earlier work; for histone deacetylation: cultured mammalian cells, fractioned cell extracts
trapoxin binding protein = assay: Trapoxin binding, charcoal precipitation assay with [3H]trapoxin; settings: simultaneous addition, bovine thymus extracts
mammalian cells = settings: cited from earlier work; for gene expression and differentiation: certain mammalian cell lines; for cell cycle arrest: mammalian cells
histone deacetylase [2] = assay: Histone deacetylase assay, release of [3H]acetic acid from [3H]acetylated histone H4 (1-24) peptide; format: biochemical; settings: 20 nM; crude or partially purified (Mono Q) bovine thymus nuclear enzyme; pretreatment 30 min at 4° C.
Protocol: Nuclear proteins from bovine thymus were precipitated with ammonium sulfate and fractionated on a Mono Q column. […] For the histone deacetylase assay, a peptide corresponding to bovine histone H4 (1-24) was synthesized. The peptide was chemically acetylated with sodium [^3H]acetate (5.3 Ci/mmol, New England Nuclear)/BOP reagent (Aldrich) and purified by reverse phase HPLC. Two microliters of [^3H]peptide (˜40,000 dpm) were used per […] assay. After incubation at 37° C. for one hour, the reaction was quenched with 1 M HCl/0.16 M acetic acid (50 μl). Released [^3H]acetic acid was extracted with 600 μl of ethyl acetate and quantified by scintillation counting. […] A280=absorbance at 280 n.
Briefly, thymocytes (˜12 g) prepared from fresh bovine thymus were homgenized in hypotonic lysis buffer [20 mM tris (pH 7.8), 20 mM NaCl, 1 mM EDTA, 10% glycerol, 1 mM PMSF, 1 mM benzamidine, 10 μg/ml each of pepstatin, aprotinin, and leupeptin] by mechanical disruption and the nuclei were isolated by centrifugation at 3000 g. Nuclei were resuspended in lysis buffer and the proteins were extracted with 0.4 M ammonium sulfate. The viscous lysate was sonicated and clarified by centrifugation at 100,000 g for one hour. Proteins were then precipitated with 90% saturated ammonium sulfate and recovered by centrifugation (100,000 g, one hour). […]

HD1 and RbAp48 = biological target: T1, HD1 and RbAp48 (Homo sapiens, UniProt Q13547); assay: Immunoblot of proteins eluted from K-trap affinity matrix; format: binding, bovine and human; settings: affinity purification in presence of inhibitor
T1 construct: endogenous in cells; host or cells: Jurkat nuclear extract (the same blot also carries bovine thymus nuclear proteins)
Source text: Proteins eluted from the K-trap affinity matrix (FIG. 2) were separated by SDS-PAGE and transferred to Immobilon-P (Millipore). Blots were probed with polyclonal anti-HD1 (319-336) or monoclonal anti-RbAp48 and bound antibodies were detected with enhanced chemiluminescence (Amersham).
To determine the relationship between the proteins from bovine thymus (p46-p50) and the proteins isolated from human Jurkat T cells (p50 and p55), an antiserum was generated against a peptide specified by the HD1 open reading frame (FIG. 3A, amino acids […]).

HD1 = biological target: T2, HD1 (Homo sapiens, UniProt Q13547); assay: Histone deacetylase activity of anti-HD1(467-482) immunoprecipitates from Jurkat nuclear extract; format: biochemical; settings: endogenous HD1 from Jurkat crude nuclear extracts
T2 construct: endogenous in cells; host or cells: Jurkat T cells (nuclear extract)
Protocol: After resuspending the immunoprecipitates in HDx buffer [20 mM tris (pH 8), 150 mM NaCl, 10% glycerol], inhibitors were added as indicated, and histone deacetylase activity was measured as described in FIG. 1A.
We used affinity purified antibodies directed against a COOH-terminal peptide (amino acids 467 to 482) to immunoprecipitate HD1 from crude nuclear extracts.

[3] = biological target: T3, recombinant FLAG epitope tagged HD1 (HD1-F) (Homo sapiens, UniProt Q13547); assay: Histone deacetylase activity of anti-FLAG immunoprecipitates of recombinant HD1-F; format: biochemical; settings: Jurkat cells transfected with pBJ5/HD1-F
T3 construct: expressed in transfected cells; host or cells: Tag Jurkat cells, electroporated with pBJ5/HD1-F
Protocol: Anti-FLAG antibodies conjugated to agarose beads (IBI) were used to immunoprecipitate recombinant HD1 in the presence or absence of FLAG peptide competitor, and histone deacetylase activity was measured as described above.

recombinant HD1-F = biological target: T4, recombinant HD1-F (Homo sapiens, UniProt Q13547); assay: Interaction between recombinant HD1-F and K-trap affinity matrix, immunoblot; format: binding; settings: lysates of transfected Jurkat cells
T4 construct: expressed in transfected cells; host or cells: Tag Jurkat cells, electroporated with pBJ5/HD1-F
Protocol: Lysates from Jurkat cells transfected with pBJ5/HD1-F were incubated with the K-trap affinity matrix in the presence or absence of inhibitors. Immunoblots of the eluted proteins were probed with the anti-FLAG M2 monoclonal antibody (IBI).

T1 sequence (Q13547 whole entry): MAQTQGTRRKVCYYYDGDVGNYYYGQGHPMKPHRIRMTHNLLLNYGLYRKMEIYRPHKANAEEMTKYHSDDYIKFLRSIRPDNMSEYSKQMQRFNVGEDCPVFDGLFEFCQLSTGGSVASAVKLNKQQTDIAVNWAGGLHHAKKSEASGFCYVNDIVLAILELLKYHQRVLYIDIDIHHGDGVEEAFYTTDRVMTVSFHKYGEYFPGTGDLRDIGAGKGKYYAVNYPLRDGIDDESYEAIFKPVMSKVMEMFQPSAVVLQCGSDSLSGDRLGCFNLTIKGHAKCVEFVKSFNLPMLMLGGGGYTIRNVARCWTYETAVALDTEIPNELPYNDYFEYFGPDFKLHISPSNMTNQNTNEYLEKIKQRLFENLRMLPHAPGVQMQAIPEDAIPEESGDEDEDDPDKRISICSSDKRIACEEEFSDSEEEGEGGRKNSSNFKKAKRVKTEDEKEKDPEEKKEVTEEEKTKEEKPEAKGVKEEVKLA
T1 sequence (Q09028 2-425 partner): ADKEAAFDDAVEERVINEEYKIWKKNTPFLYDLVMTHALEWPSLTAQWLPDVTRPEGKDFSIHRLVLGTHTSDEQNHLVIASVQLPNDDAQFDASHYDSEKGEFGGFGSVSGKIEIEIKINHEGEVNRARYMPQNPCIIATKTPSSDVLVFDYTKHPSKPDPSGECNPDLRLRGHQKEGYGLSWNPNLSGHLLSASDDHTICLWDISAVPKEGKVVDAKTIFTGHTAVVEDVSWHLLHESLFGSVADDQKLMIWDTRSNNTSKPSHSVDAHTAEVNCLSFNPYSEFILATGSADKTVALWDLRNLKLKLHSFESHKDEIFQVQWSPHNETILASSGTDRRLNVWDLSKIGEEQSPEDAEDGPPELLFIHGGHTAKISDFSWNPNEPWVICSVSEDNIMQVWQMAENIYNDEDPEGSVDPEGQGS
T3 sequence (Q13547 whole entry): as the sequence (Q13547 whole entry) above
T4 sequence (Q13547 whole entry): as above
T2 sequence (Q13547 whole entry): as above
T2 sequence (Q09028 2-425 partner limits assumed): as the sequence (Q09028 2-425 partner) above

Structure (SMILES) | retention of bovine p46-p50 on K-trap matrix in the presence of inhibitor (bovine p46-p50) | mode of inhibition of histone deacetylase activity (histone deacetylase [1]) | histone deacetylation (histone deacetylase [1]) | histone deacetylation (histone deacetylase [1]; listed as Trapoxin) | competition with [3H]trapoxin binding (trapoxin binding protein) | gene expression and differentiation (mammalian cells) | cell cycle arrest (mammalian cells) | cell cycle arrest (mammalian cells; listed as Trapoxin) | histone deacetylase activity after treatment (histone deacetylase [2]) | detection of HD1 and RbAp48 in K-trap matrix eluates (HD1 and RbAp48) | histone deacetylase activity of HD1 immunoprecipitates (HD1) | histone deacetylase activity of HD1-F immunoprecipitates [3] | competition of HD1-F interaction with K-trap affinity matrix (recombinant HD1-F) | potency relative to sodium butyrate (mammalian cells)
O=C1N[C@@H](Cc2ccccc2)C(=O)N2CCC[C@@H]2C(=O)N[C@@H](CCCCCC(=O)[C@@H]2CO2)C(=O)N[C@H]1Cc1ccccc1 [trapoxin] (cyclo(FF[dP][Aoe])) | not retained | “irreversible” inhibitor | inhibit histone deacetylation | inhibits histone deacetylation in vivo | completed | alter gene expression and induce certain mammalian cell lines to differentiate | G1 and G2 phase cell cycle arrest | causes mammalian cells to arrest in the cell cycle | abolished deacetylase activity | – | – | – | – | –
CC(/C=C/C(=O)NO)=C\[C@@H](C)C(=O)c1ccc(N(C)C)cc1 [trichostatin] | not retained | – | inhibit histone deacetylation | – | competed | alter gene expression and induce certain mammalian cell lines to differentiate | G1 and G2 phase cell cycle arrest | – | abolished deacetylase activity | neither HD1 nor RbAp48 was detected | inhibited | sensitive | fully competed by nanomolar concentrations | five orders of magnitude more potent
